Peptide text beside a SMILES is read from it. * marks the point of attachment. Cbz = O=C(OCc1ccccc1)*; CH2F = FC*
Legend:
[1] = test system: P. falciparum-induced apoptosis of human lung endothelial cells (HLEC); assay: APOPercentage quantitative apoptosis assay, pRBC/HLEC co-incubation; format: cell-based; conditions: 24 hours pRBC exposure, purple dye pixel number (FIG. 4)
Experimental: Endothelial apoptosis was quantitatively assessed using APOPercentage™ dye purchased from Biocolor Ltd. (Belfast, Northern Ireland). The assay uses a purple-red colour dye that is selectively incorporated into apoptotic but not necrotic cells. Unilateral uptake of the dye occurs through phosphatidylserines of the outer membrane of cells that undergo apoptosis. Endothelial cells were cultured in 6-well plates until confluence before exposure to P. falciparum infected erythrocytes during 24 hours. HLEC were incubated for 1 hour with the Apopercentage dye (1/20) before co-incubation time is reached and delicately washed 3 times with PBS. Apoptosis was then quantified by Analytical Digital Photomicroscopy (ADP): for each experiment 4 representative fields of each well of cell cultures were photographed using inverted phase contrast microscope coupled with a digital camera. Images were then transferred to a computer and the level of apoptosis was expressed as a red pixel number counted by Adobe® Photoshop®.
Briefly, APOPercentage™ was used as a mean to quantify induced apoptosis and the effect of Fasudil on cell survival during pRBC/HLEC co-incubations by quantitatively assessing the […] of purple red dye by apoptotic HLEC using Analytical Digital Photomicroscopy (ADP). […]

[2] = test system: NF-kappaB nuclear translocation in HLEC; assay: NF-kappaB P65 nuclear translocation (endothelial activation) in pRBC-exposed HLEC; format: cell-based, human; conditions: Fasudil 30 μM added concomitantly with pRBC, 6 hours, P<0.005 (FIG. 8)
Experimental: Briefly, HLEC were cultured in 8-chambers Labtek plates and exposed to pRBC during 6 hours at 1% of hematocrit and 50% of parasitemia. Rho-kinase inhibitor Fasudil was added concomitantly with pRBC at 30 μM. TNFβ at 20 ng/ml was used as a positive control of NF-kappaB nuclear translocation. Cells were then fixed and permeabilized for immunostaining with primary anti-NF-kappaB P65 subunit antibody and secondary FITC-anti-mouse IgG antibody. Nuclei were stained with diamidino-phenylindole (DAPI). After immunostaining of NF-kappaB P65 subunit, results were analysed by fluorescence microscopy and the number of activated HLEC (cells with complete but not partial migration nuclear P65 staining) per each condition (n=4) was counted (FIG. 8).

[3] = test system: P. falciparum induced endothelial permeability of HLEC monolayer; assay: Endothelial barrier integrity assay (Evans Blue diffusion through HLEC monolayer); format: cell-based, human
Experimental: In order to measure the effect of treatments on pre-exposed pRBCs endothelial cells, we developed a method based on Evans Blue diffusion through endothelial monolayer. Briefly HLEC were raised on Transwell Permeable supports (polyester membrane, 3 μm pore size, 6.5 mm diameter, Corning Incorporated Life Sciences) until confluence in M199 medium. Mature forms of 3D7 P. falciparum clone were then harvested from culture and adjusted at 1% of hematocrit and 50% of parasitemia before 4 hours co-incubation at 37° C. 5% CO2. After PRBC exposure, endothelial cell monolayers were treated 20 hours with Fasudil (1 μM or 30 μM). […] Lower compartments were finally collected for optical density analysis at 630 nm of diffused Evans Blue, using a standard microtiter plate reader (Bio-Tek™ EL311SX, Instruments Inc).
Briefly, P. falciparum cytoadherence effect on endothelial barrier function was assessed by culturing HLEC in Transwell inserts until confluence before exposing them 4 hours to mature forms of pRBC as above. The quantity of Evans Blue collected in lower compartments was markedly higher in pRBC/HLEC co-incubation conditions than in control RBC/HLEC (p<0.01) or non-exposed endothelial cell conditions (p<0.01). […]
Briefly, HLEC were cultured in Transwell inserts until confluence. […] Endothelial barrier integrity was assessed as described above.

RhoA/Rho-kinase pathway = assay: G-LISA RhoA/Rho-kinase pathway activation assay in HLEC co-incubated with P. falciparum pRBC; format: cell-based, human; conditions: Fasudil 30 μM, 24 hours pRBC-contact co-incubation with HLEC, compared to pRBC alone, p<0.05 (FIG. 2)
Experimental: Activity of RhoA and its downstream effector Rho-kinase was assessed using G-LISA™ RhoA Activation Assay Biochem Kit purchased from Cytoskeleton (Denver, Colo.). The principle of the assay is to determine the amount of active GTP-bound RhoA extracted from cultured cells with a Rho-GTP-binding protein coated 96-well plate and final detection with immunoreagents. Briefly, HLEC were cultured in 6-well plates until 50-70% confluence as recommended by the manufacturer and exposed to P. falciparum infected erythrocytes or non infected erythrocytes at 1% of hematocrit and 50% of parasitemia. When used, Fasudil was added concomitantly with parasites at 30 μM. After 24 hours of incubation cells were washed and ice-cold lysed in phosphate buffer saline containing protease inhibitors. Cell lysates were then clarified by centrifugation at 4° C. 10,000 rpm for 2 min before measurement of protein concentrations. Cell extracts were equalized with lysis buffer to give identical protein concentrations before incubation in Rho-GTP affinity plate for 30 min at 4° C. […]
Briefly, RhoA activity in HLEC co-incubated during 24 hours with P. falciparum infected red blood cells (pRBC) or non infected red blood cells (RBC) was measured using the G-LISA™ RhoA activation kit (Cytoskeleton, Denver Colo.) as described in the Materials and Methods section.

SMILES	decrease in apoptosis of pRBC-exposed HLEC compared to non treated cells ([1]; 1 μM Fasudil) [fold]	decrease in apoptosis of pRBC-exposed HLEC compared to non treated cells ([1]; 30 μM) [fold]	P. falciparum-induced endothelial activation (% cells with nuclear NF-kappaB P65) [2]	quantity of Evans Blue marker in lower compartment (OD 630 nm) ([3]; HLEC exposed 4 hours to pRBC, then 30 μM Fasudil for 20 hours, vs HLEC and pRBC, p<0.01 (FIG. 6))	activated RhoA concentration ([Rho-GTP], OD 490 nm) (RhoA/Rho-kinase pathway)	quantity of Evans Blue in the lower compartment (OD 630 nm) ([3]; pRBC/HLEC co-incubation in the presence of z-vad 10 μM or 100 μM (FIG. 5))
O=S(=O)(c1cccc2cnccc12)N1CCCNCC1 [Fasudil]	1.4	4.1	significantly reduces	significantly lower	significant decrease	–
COC(=O)C[C@H](NC(=O)[C@H](C)NC(=O)[C@@H](NC(=O)OCc1ccccc1)C(C)C)C(=O)CF [z-vad, Z-VAD-fmk] (Cbz-Val-Ala-Asp(OMe)-CH2F)	–	–	–	–	–	significantly reduced
